According to patent US12077503B2, “Substituted cyclic amides and their use as herbicides” (FMC CORPORATION, priority 2015, dated 2024):

Key:
Assay type in all cases: in vivo
[1] = test system: green foxtail (Setaria viridis); assay: Test A preemergence; details: for Foxtail, Green plant response rating: 31 g ai/ha, 0 to 100 scale where 0 is no effect and 100 is complete control; for Plant response rating, Foxtail, Green: 125 g ai/ha, 0 to 100 scale (0 no effect, 100 complete control)
Summary of the method: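 Each rating is a visual injury score from 0 to 100 given about 10 d after treatment, judged against untreated controls kept alongside in the greenhouse. In loam soil–sand blend, seeds got a preemergence directed soil spray, while postemergence plants were 2 to 10 cm tall at spraying.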

[2] = test system: arrowleaf Sida (Sida rhombifolia); assay: Test E preemergence; details: scale 0 to 100
From the text: (§1) Seeds of plant species selected from corn (Zea mays), soybean (Glycine max), velvetleaf (Abutilon theophrasti), lambsquarters (Chenopodium album), poinsettia, wild (wild poinsettia, Euphorbia heterophylla), pigweed, palmer (palmer pigweed, Amaranthus palmeri), waterhemp (common waterhemp, Amaranthus rudis), surinam grass (Brachiaria decumbens), crabgrass, large (large crabgrass, Digitaria sangumnalis), crabgrass, Brazil (Brazilian crabgrass, Digitaria horizontalis), Panicum, fall (fall Panicum, Panicum dichotomiflorum), foxtail, giant (giant foxtail, Setaria faberii), foxtail, green (green foxtail, Setaria viridis), goosegrass (Eleusine indica), johnsongrass (Sorghum halepense), ragweed (common ragweed, Ambrosia elatior), barnyardgrass (Echinochloa crus-galli), sandbur (southern sandbur, Cenchrus echinatus), arrowleaf Sida (Sida rhombifolia), ryegrass, Italian (Italian ryegrass, Lolium multiflorum), dayflower, VA (Virginia dayflower, Commelina virginica), field bindweed (Convolvulus arvensis), morningglory (Ipomoea coccinea), nightshade (eastern black nightshade, Solanum ptycanthum), Kochia (Kochia scoparia), nutsedge, yellow (yellow nutsedge, Cyperus esculentus), horseweed (Conyza canadensis), and beggarticks (hairy beggarticks, Bidens pilosa), were planted into a silt loam soil and treated preemergence with test chemicals formulated in a non-phytotoxic solvent mixture which included a surfactant.
(§2) At the same time, plants selected from these crop and weed species were planted in pots containing Sunshine Redi-Earth planting medium comprising spaghnum peat moss, vermiculite, starter nutrients and dolomitic limestone and treated with postemergence applications of a test chemical formulated in the same manner. Plants ranged in height from 2 to 18 cm (1- to 4-leaf stage) for postemergence treatments. Treated plants and controls were maintained in a greenhouse for 14 to 21 d, after which time all species were compared to controls and visually evaluated. Plant response ratings, summarized in Table E, are based on a scale of 0 to 100 where 0 is no effect and 100 is complete control. A dash (-) response means no test result.

[3] = test system: foxtail, green (green foxtail, Setaria viridis); assay: Test E preemergence; details: scale 0 to 100
From the text: as §1, §2

[4] = test system: lambsquarters (Chenopodium album); assay: Test E preemergence; details: scale 0 to 100
From the text: as §1, §2

[5] = test system: field bindweed (Convolvulus arvensis); assay: Test E preemergence; details: scale 0 to 100
From the text: as §1, §2

[6] = test system: crabgrass, large (large crabgrass, Digitaria sangumnalis); assay: Test E preemergence; details: scale 0 to 100
From the text: as §1, §2

[7] = test system: sandbur (southern sandbur, Cenchrus echinatus); assay: Test E preemergence; details: scale 0 to 100
From the text: as §1, §2

soybean (Glycine max) = assay: Test E preemergence; details: scale 0 to 100
From the text: as §1, §2

[8] = test system: barnyardgrass (Echinochloa crus-galli); assay: Test E preemergence; details: scale 0 to 100
From the text: as §1, §2

[9] = test system: Panicum, fall (fall Panicum, Panicum dichotomiflorum); assay: Test E preemergence; details: scale 0 to 100
From the text: as §1, §2

[10] = test system: poinsettia, wild (wild poinsettia, Euphorbia heterophylla); assay: Test E preemergence; details: scale 0 to 100
From the text: as §1, §2

[11] = test system: barnyardgrass (Echinochloa crus-galli); assay: Test G Pre-Emergence Protocol; details: Echinochloa crus-galli, pre-emergence, 312 h, evaluated after 13 days; for pest or weed control at 15.625 g/ha: 15.625 g ai/ha, read-out: Barnyard grass damage rating (100=total damage to plant; 0=no damage to plant); for pest or weed control at 62.5 g/ha: 62.5 g ai/ha, 100=total damage to plant, 0=no damage to plant, read-out: plant damage rating, Barnyardgrass; for pest or weed control at 250 g/ha: 250 g ai/ha, read-out: Barnyardgrass damage rating (100=total damage to plant; 0=no damage to plant)
Protocol: Seeds of corn (Zea mays), giant foxtail (Setaria faberi), barnyardgrass (Echinochloa crus-galli), ivy-leaved morning glory (Ipomoea hederacea), redroot pigweed (Amaranthus retroflexus) and velvetleaf (Abutilon theophrasti) were sown in standard soil in pots. After cultivation for one day under controlled conditions in a glasshouse (at 24/16° C., day/night; 14 hours light; 65% humidity), the plants were sprayed with an aqueous spray solution derived from the formulation of the technical active ingredient in acetone/water (50:50) solution containing 0.5% Tween 20 (polyoxyethylene sorbitan monolaurate, CAS RN 9005-64-5) to give a final dose of 15.625, 62.5 or 250 g/ha of test compound.
The test plants were then grown on under controlled conditions in a glasshouse (at 24/16° C., day/night; 14 hours light; 65% humidity) and watered twice daily. After 13 days the test was evaluated (100=total damage to plant; 0=no damage to plant). A dash (-) means no test result.

CN1C[C@H](c2csc3c2CCC(F)(F)C3)[C@@H](C(=O)Nc2ccc(F)c(F)c2F)C1=O (racemic) [Compound 1368]
Foxtail, Green plant response rating [1]: 0
Plant response rating, Foxtail, Green [1]: 100

CN1C[C@H](c2csc3c2CCC(F)(F)C3)[C@@H](C(=O)Nc2cccc(F)c2F)C1=O (racemic) [Compound 1369]
Foxtail, Green plant response rating [1]: 20
Plant response rating, Foxtail, Green [1]: 100

CN1CC(c2cccc(OC(F)(F)C(F)F)c2)C(C(=O)Nc2cccc(F)c2F)C1=O (centres unmarked) [Compound 392]
Plant response rating: Arrowleaf Sida ([2]; 31 g ai/ha): 0
Plant response rating: Arrowleaf Sida ([2]; 62 g ai/ha): 15
Plant response rating: Arrowleaf Sida ([2]; 125 g ai/ha): 65
Plant response rating: Arrowleaf Sida ([2]; 250 g ai/ha): 80
Plant response rating: Foxtail, Green ([3]; 31 g ai/ha): 65
Plant response rating: Foxtail, Green ([3]; 62 g ai/ha): 90
Plant response rating: Foxtail, Green ([3]; 125 g ai/ha): 95
Plant response rating: Foxtail, Green ([3]; 250 g ai/ha): 98
Plant response rating: Lambsquarters ([4]; 31 g ai/ha): 75
Plant response rating: Lambsquarters ([4]; 62 g ai/ha): 75
Plant response rating: Lambsquarters ([4]; 125 g ai/ha): 98
Plant response rating: Lambsquarters ([4]; 250 g ai/ha): 100
Plant response rating: Field Bindweed ([5]; 31 g ai/ha): 0
Plant response rating: Field Bindweed ([5]; 62 g ai/ha): 0
Plant response rating: Field Bindweed ([5]; 125 g ai/ha): 35
Plant response rating: Field Bindweed ([5]; 250 g ai/ha): 70
Plant response rating: Crabgrass, Large ([6]; 31 g ai/ha): 90
Plant response rating: Crabgrass, Large ([6]; 62 g ai/ha): 95
Plant response rating: Crabgrass, Large ([6]; 125 g ai/ha): 98
Plant response rating: Crabgrass, Large ([6]; 250 g ai/ha): 98
Plant response rating: Sandbur ([7]; 31 g ai/ha): 0
Plant response rating: Sandbur ([7]; 62 g ai/ha): 60
Plant response rating: Sandbur ([7]; 125 g ai/ha): 60
Plant response rating: Sandbur ([7]; 250 g ai/ha): 90
Plant response rating: Soybean (soybean (Glycine max); 31 g ai/ha): 0
Plant response rating: Soybean (soybean (Glycine max); 62 g ai/ha): 0
Plant response rating: Soybean (soybean (Glycine max); 125 g ai/ha): 20
Plant response rating: Soybean (soybean (Glycine max); 250 g ai/ha): 25
Plant response rating: Barnyardgrass ([8]; 31 g ai/ha): 85
Plant response rating: Barnyardgrass ([8]; 62 g ai/ha): 70
Plant response rating: Barnyardgrass ([8]; 125 g ai/ha): 90
Plant response rating: Barnyardgrass ([8]; 250 g ai/ha): 95
Plant response rating: Panicum, Fall ([9]; 31 g ai/ha): 95
Plant response rating: Panicum, Fall ([9]; 62 g ai/ha): 98
Plant response rating: Panicum, Fall ([9]; 125 g ai/ha): 98
Plant response rating: Panicum, Fall ([9]; 250 g ai/ha): 98
Plant response rating: Poinsettia, Wild ([10]; 31 g ai/ha): 0
Plant response rating: Poinsettia, Wild ([10]; 62 g ai/ha): 0
Plant response rating: Poinsettia, Wild ([10]; 125 g ai/ha): 35
Plant response rating: Poinsettia, Wild ([10]; 250 g ai/ha): 20

CN1C[C@H](c2ccc(C(F)(F)F)cc2)[C@@H](C(=O)Nc2cccnc2F)C1=O [Compound 1396]
pest or weed control at 15.625 g/ha [11]: 80%
pest or weed control at 62.5 g/ha [11]: 90%
pest or weed control at 250 g/ha [11]: 90%

CN1C[C@H](c2ccc(Cl)cc2)[C@@H](C(=O)Nc2cccc(F)n2)C1=O [Compound 1399]
pest or weed control at 15.625 g/ha [11]: 0%
pest or weed control at 62.5 g/ha [11]: 90%
pest or weed control at 250 g/ha [11]: 90%
